Where two headings read alike, the source gives them in different places. Peptide text beside a SMILES is read from it.

The test system of test [1] is insect cell Sf9. It counts as cell-based. Particulars: Sf9 cells; for Survival rate (%) Average ± Standard deviation (n = 4): Sf900IISFM medium without FCS, 5 days at 27.5° C. The protocol:
Cell death-preventing activity of the peptide according to the present invention was evaluated using an insect cell Sf9 (Invitrogen).
The Sf9 cell is usually subcultured using an Sf900IISFM medium (Invistrogen) containing 10% FCS (fetal calf serum) (Sigma) at a temperature of 27.5° C. It is known that marked cell death occurs when the Sf9 cells thus cultured are abruptly transferred into a medium without FCS and thus exposed to drastic serum-deprived conditions. In this test, cells to be tested were exposed under such drastic serum-deprived conditions and their survival rate was measured to evaluate cell death-preventing effect of the peptide according to the present invention.
First, Sf9 cells subcultured using a medium supplemented with 10% FCS were centrifuged at 1000 rpm at 4° C. for 5 minutes. Next, the supernatant was removed and the precipitated cells were suspended in an Sf900IISFM medium without FCS. The suspension was recentrifuged at 1000 rpm at 4° C. for 5 minutes to wash the cells.
Next, in order to expose the cells under drastic serum-deprived conditions, the washed cells were resuspended in an Sf900IISFM medium without FCS and a cell suspension having a cell density of 5×10^5 cells/ml was prepared.
On the other hand, peptide A (the present invention) was dissolved in an Sf900IISFM medium without FCS and peptide solutions were prepared at peptide concentrations of 0.2 mg/ml, 0.6 mg/ml, and 2.0 mg/ml. The peptide solutions thus prepared were sterilized by filtration.
Next, 50 μl of the abovementioned cell suspension and 50 μl each of the abovementioned peptide solutions were dispensed on a 96-well cell culture plate at a final cell density of 2.5×10^5 cells/ml and final peptide concentrations of 0.1 mg/ml, 0.3 mg/ml, and 1.0 mg/ml, respectively. This culture plate was incubated at 27.5° C. for 5 days.
After 5 days of incubation, cells were stained with Trypan blue and the number of dead cells and the number of viable cells were counted to obtain the survival rate. Here the survival rate means the ratio of the viable cell count to the total cell count upon cell counting.
As a comparative example, an experiment was carried out in the same manner as described above for peptide A, except that peptide B was used in place of peptide A (the present invention), to obtain the survival rate.
As another comparative example, an experiment was carried out in the same manner as described above for peptide A, except that a bovine serum albumin (Sigma) solution was used in place of the abovementioned peptide solutions, to obtain the survival rate.

In test [2] the test system is insect cell Sf9. Description: Evaluation Test 2: Cell growth-promoting activity (MTT assay under serum-deprived conditions). Format: cell-based. Particulars: Sf9 cells; for OD 595 nm Average ± Standard deviation (n = 4): medium without FCS, 9 days at 27.5° C. As to the method:
Cell growth-promoting activity of the peptide according to the present invention was evaluated using an insect cell Sf9 (Invitrogen).
It is known that marked cell death as shown in Evaluation Test 1 and thereafter a decrease in cell growth occur when the Sf9 cells are exposed to drastic serum-deprived conditions. In this test, the cells to be tested were exposed under such drastic serum-deprived conditions and their growth ability was measured to evaluate cell growth-promoting effect of the peptide according to the present invention.
A cell suspension was prepared in the same manner as in Evaluation test 1, and peptide solutions were prepared using peptide A (the present invention) as in Evaluation test 1. Next, 50 μl of this cell suspension and 50 μl each of the peptide solutions were dispensed on a 96-well cell culture plate in the same manner as in Evaluation test 1, and this culture plate was incubated at 27.5° C. for 9 days.
After 9 days of incubation, cell growth-promoting effect was evaluated by the MTT assay.
Specifically, to each well of the 96-well plate incubated for 9 days was added 5 μl of 5 mg/ml 3-(4,5-dimethyl-2-thiazolyl)-2,5-diphenyl tetrazolium bromide (MTT) in phosphate-buffered physiological saline, and the plate was incubated at 27.5° C. for further 5 hours. During this culture process, MTT is transformed into insoluble formazan in viable cells. After 5 hours of incubation, cell culture supernatant was completely removed and then 200 μl each of a 10 mM […] solution with 10% SDS was added to each well to completely dissolve the cells and formazan in the cells. Next, the absorption coefficient at 595 nm was measured for each well using a microplate reader.
As a comparative example, an experiment was carried out in the same manner as the one with the abovementioned peptide A, except that peptide B was used in place of peptide A (the present invention), and then the absorption coefficient at 595 nm was measured for each well.
As another comparative example, an experiment was carried out in the same manner as described above for peptide A, except that a bovine serum albumin (Sigma) solution was used in place of the abovementioned peptide solutions, and then the absorption coefficient at 595 nm was measured for each well.
Here the value of the absorption coefficient in the NTT assay increases with an increase in viable cell density.

[3] abbreviates: sample concentration 1.0 mg/ml, listed as peptide A.

In the case of `C[C@@H](O)[C@H](NC(=O)[C@H](CO)NC(=O)[C@H](CO)NC(=O)CNC(=O)CNC(=O)[C@@H](N)CO)C(=O)N[C@@H](Cc1ccc(O)cc1)C(=O)NCC(=O)N[C@@H](Cc1ccc(O)cc1)C(=O)N[C@@H](CO)C(=O)O` [Peptide A] (H-SGGSSTYGYS-OH; N-terminus assumed), the “Survival rate (%) Average ± Standard deviation (n = 4)” value with insect cell Sf9 [1] (sample concentration 0.1 mg/ml) is recorded as 28.5 ± 3.4%; in the test on insect cell Sf9 [1] (sample concentration 0.3 mg/ml), 47.3 ± 2.9%; with insect cell Sf9 [1] (sample concentration 1.0 mg/ml), 58.0 ± 3.2%; in the test on insect cell Sf9 [1] (setting [3]), “about 60%”. For the same molecule, the “survival rate compared with peptide B (comparative example)” value in the test on insect cell Sf9 [1] (serum-deprived, 5 days) is “higher than that with peptide B”. Further, the “OD 595 nm Average ± Standard deviation (n = 4)” value with insect cell Sf9 [2] (sample concentration 0.1 mg/ml) is 0.48 ± 0.01; in the test on insect cell Sf9 [2] (sample concentration 0.3 mg/ml) it was 0.80 ± 0.02; in the test on insect cell Sf9 [2] (sample concentration 1.0 mg/ml), 0.92 ± 0.02; in the test on insect cell Sf9 [2] (setting [3]) it was “about 0.9”. Also, the “cell growth-promoting activity compared with peptide B (comparative example)” value with insect cell Sf9 [2] (serum-deprived, 9 days) was “higher than that with peptide B”.
“bovine serum albumin [reference compound]”: the “Survival rate (%) Average ± Standard deviation (n = 4)” value in the test with insect cell Sf9 [1] (sample concentration 0.3 mg/ml) amounted to 62.5 ± 3.0%. Also, the “OD 595 nm Average ± Standard deviation (n = 4)” value in the test on insect cell Sf9 [2] (sample concentration 0.3 mg/ml) is given as 0.90 ± 0.03.

B1: Peptide B: peptide having the amino acid sequence of SEQ ID NO: 3, 2 repeats of the 38 amino acid sequence contained in natural sericin (WO 02/086133) (protein)
chain: SSTGSSSNTDSNSNSAGSSTSGGSSTYGYSSNSRDGSVSSTGSSSNTDSNSNSAGSSTSGGSSTYGYSSNSRDGSV
modifications: Peptide derived from sericin
As to B1, the “Survival rate (%) Average ± Standard deviation (n = 4)” value with insect cell Sf9 [1] (sample concentration 0.3 mg/ml) was 46.1 ± 2.2%. Also, in the test with insect cell Sf9 [2] (sample concentration 0.3 mg/ml), the “OD 595 nm Average ± Standard deviation (n = 4)” value is 0.72 ± 0.03.

Source of the values: patent US7329726B2, “Physiologically active peptides” (Seiren Kabushiki Kaisha, priority 2004, dated 2008).
